One test concerns H1975/Gefitinib. Nature of the test: cells. The note with it: Homo sapiens, 72 h.
Test [1] addresses Mast/stem cell growth factor receptor Kit (Homo sapiens, UniProt P10721). Nature of the test: Inhibition of human N-terminal GST-tagged c-Kit cytoplasmic domain (544 to end residues) expressed in baculovirus infected Sf21 insect cells using peptide substrate measured after 1 hr by mobility shift assay.
For test [2], the target named is Platelet-derived growth factor receptor beta (Homo sapiens, UniProt P09619). Nature of the test: Inhibition of human His-tagged PDGFRB cytoplasmic domain expressed in baculovirus expression system using peptide substrate measured after 1 hr by mobility shift assay.
For another test, the system named is HT-29. Nature of the test: Potency index, ratio of foretinib IC50 to test compound IC50 for antiproliferative activity against human HT-29 cells. The test is classed as functional.
The target in test [3] is Vascular endothelial growth factor receptor 2 (Homo sapiens, UniProt P35968). Nature of the test: Inhibition of human N-terminal GST-fused KDR cytoplasmic domain (790 to 1356 residues) expressed in baculovirus expression system using CSKtide as substrate measured after 1 hr by mobility shift assay.
The test system of another test is NCI-H1975. Nature of the test: Antiproliferative activity against human NCI-H1975 cells measured after 72 hrs by MTT assay. The test is classed as functional, cell-based. The note with it: NCI-H1975, 72 h.
Test [4] deals with Aurora kinase B (Homo sapiens) (UniProt Q96GD4). Nature of the test: Inhibition of Aurora-B (unknown origin) at 200 nM relative to control.
A further test deals with MCF7. Nature of the test: Potency index, ratio of foretinib IC50 to test compound IC50 for antiproliferative activity against human MCF7 cells. The format is functional.
Test [5] addresses T1, Tyrosine-protein kinase Mer (Homo sapiens, UniProt Q12866).
T1 sequence (Q12866 whole entry): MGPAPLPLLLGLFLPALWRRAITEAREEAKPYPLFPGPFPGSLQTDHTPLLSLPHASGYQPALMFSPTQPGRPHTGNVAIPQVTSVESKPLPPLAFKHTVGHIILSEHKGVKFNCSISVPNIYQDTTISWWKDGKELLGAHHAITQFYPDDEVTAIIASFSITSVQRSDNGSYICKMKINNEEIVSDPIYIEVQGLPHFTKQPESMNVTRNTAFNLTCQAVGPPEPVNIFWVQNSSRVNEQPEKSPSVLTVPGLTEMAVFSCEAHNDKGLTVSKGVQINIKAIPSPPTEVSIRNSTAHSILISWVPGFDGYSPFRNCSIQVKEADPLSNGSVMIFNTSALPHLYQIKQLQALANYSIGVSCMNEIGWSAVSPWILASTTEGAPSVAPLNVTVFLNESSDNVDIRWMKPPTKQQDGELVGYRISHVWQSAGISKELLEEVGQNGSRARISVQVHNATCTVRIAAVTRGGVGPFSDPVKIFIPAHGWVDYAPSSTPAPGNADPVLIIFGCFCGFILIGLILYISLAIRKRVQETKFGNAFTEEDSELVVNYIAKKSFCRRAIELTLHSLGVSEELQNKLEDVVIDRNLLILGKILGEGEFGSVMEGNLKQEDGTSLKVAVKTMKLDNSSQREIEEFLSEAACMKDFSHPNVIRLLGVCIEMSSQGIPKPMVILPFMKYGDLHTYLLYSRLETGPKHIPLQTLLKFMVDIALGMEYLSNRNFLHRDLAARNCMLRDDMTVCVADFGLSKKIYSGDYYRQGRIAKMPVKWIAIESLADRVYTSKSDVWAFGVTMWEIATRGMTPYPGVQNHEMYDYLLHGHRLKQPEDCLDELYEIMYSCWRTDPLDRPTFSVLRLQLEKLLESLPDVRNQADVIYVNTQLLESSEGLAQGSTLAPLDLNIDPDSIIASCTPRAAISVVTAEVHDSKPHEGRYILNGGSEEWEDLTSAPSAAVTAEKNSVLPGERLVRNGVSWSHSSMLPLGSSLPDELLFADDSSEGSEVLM
Nature of the test: Inhibition of MER (unknown origin).

Test [6] addresses Vascular endothelial growth factor receptor 3 (Homo sapiens) (UniProt P35916). Nature of the test: Inhibition of Flt4 (unknown origin) at 200 nM relative to control.
The target in test [7] is T2, Receptor-type tyrosine-protein kinase FLT3 (Homo sapiens, UniProt P36888).
T2 sequence (P36888 whole entry): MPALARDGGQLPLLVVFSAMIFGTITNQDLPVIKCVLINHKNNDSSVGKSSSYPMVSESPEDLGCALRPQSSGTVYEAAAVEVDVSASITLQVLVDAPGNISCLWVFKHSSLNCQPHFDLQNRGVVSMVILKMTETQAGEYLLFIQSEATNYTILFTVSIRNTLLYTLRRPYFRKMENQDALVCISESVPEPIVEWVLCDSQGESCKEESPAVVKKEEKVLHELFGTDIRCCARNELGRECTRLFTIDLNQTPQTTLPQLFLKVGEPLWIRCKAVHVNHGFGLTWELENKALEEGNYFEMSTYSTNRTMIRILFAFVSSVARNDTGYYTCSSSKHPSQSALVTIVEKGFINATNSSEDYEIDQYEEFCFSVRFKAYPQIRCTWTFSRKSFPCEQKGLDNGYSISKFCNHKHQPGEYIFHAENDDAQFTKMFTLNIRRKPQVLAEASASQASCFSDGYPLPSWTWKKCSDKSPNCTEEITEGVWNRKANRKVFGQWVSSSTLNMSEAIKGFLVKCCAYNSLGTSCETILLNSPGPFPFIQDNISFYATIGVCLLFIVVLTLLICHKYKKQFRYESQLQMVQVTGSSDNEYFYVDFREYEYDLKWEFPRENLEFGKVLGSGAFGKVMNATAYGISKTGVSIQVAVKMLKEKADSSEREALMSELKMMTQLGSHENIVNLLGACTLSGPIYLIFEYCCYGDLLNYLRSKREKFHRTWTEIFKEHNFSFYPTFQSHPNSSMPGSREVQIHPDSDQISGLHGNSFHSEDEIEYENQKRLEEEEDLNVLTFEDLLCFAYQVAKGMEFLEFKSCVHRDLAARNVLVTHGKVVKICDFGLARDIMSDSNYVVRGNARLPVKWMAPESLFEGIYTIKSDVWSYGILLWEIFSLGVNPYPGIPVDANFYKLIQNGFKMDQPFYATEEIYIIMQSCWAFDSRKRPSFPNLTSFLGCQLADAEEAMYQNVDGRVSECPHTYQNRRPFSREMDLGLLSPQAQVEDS
Nature of the test: Inhibition of human N-terminal GST-fused FLT3 cytoplasmic domain (564 to 993 residues) expressed in baculovirus expression system using Srctide as substrate measured after 1 hr by mobility shift assay.

The next test deals with PC-3. Nature of the test: Potency index, ratio of foretinib IC50 to test compound IC50 for antiproliferative activity against human PC-3 cells. The test is classed as functional.

Chain of Vascular endothelial growth factor receptor 3 (Homo sapiens) (P35916 whole entry): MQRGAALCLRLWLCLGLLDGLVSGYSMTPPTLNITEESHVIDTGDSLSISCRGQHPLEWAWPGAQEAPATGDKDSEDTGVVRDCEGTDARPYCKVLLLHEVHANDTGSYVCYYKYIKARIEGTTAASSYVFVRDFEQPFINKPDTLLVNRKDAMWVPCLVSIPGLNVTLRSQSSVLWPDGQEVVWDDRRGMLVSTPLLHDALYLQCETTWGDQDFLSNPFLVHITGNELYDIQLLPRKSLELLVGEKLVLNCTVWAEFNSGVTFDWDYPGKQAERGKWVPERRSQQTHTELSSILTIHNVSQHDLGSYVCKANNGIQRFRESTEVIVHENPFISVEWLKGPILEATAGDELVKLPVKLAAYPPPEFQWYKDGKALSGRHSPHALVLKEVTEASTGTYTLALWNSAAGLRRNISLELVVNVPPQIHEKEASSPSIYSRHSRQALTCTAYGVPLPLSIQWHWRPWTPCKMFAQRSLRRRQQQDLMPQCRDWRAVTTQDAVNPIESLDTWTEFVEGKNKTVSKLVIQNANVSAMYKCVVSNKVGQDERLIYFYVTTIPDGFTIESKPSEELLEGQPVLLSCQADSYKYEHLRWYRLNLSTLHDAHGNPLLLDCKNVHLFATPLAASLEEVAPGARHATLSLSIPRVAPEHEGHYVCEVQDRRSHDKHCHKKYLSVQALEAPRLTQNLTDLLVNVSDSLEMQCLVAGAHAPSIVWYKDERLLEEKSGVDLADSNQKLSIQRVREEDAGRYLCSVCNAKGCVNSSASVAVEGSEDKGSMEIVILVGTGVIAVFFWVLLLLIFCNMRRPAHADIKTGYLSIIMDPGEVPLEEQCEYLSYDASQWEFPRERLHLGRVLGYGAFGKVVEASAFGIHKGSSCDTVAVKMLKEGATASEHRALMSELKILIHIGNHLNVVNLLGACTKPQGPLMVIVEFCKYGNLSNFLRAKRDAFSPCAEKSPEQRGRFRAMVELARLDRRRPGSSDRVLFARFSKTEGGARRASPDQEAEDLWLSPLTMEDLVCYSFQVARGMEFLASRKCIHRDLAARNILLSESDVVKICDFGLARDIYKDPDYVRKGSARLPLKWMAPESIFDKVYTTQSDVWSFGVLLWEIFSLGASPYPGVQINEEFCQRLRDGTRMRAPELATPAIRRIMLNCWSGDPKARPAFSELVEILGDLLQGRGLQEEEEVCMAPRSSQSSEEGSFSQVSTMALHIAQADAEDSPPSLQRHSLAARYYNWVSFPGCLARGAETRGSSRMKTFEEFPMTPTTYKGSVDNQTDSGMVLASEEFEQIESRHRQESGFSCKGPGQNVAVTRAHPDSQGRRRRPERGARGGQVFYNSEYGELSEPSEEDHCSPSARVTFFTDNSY
Chain of Mast/stem cell growth factor receptor Kit (P10721 whole entry, the tested form may be a part): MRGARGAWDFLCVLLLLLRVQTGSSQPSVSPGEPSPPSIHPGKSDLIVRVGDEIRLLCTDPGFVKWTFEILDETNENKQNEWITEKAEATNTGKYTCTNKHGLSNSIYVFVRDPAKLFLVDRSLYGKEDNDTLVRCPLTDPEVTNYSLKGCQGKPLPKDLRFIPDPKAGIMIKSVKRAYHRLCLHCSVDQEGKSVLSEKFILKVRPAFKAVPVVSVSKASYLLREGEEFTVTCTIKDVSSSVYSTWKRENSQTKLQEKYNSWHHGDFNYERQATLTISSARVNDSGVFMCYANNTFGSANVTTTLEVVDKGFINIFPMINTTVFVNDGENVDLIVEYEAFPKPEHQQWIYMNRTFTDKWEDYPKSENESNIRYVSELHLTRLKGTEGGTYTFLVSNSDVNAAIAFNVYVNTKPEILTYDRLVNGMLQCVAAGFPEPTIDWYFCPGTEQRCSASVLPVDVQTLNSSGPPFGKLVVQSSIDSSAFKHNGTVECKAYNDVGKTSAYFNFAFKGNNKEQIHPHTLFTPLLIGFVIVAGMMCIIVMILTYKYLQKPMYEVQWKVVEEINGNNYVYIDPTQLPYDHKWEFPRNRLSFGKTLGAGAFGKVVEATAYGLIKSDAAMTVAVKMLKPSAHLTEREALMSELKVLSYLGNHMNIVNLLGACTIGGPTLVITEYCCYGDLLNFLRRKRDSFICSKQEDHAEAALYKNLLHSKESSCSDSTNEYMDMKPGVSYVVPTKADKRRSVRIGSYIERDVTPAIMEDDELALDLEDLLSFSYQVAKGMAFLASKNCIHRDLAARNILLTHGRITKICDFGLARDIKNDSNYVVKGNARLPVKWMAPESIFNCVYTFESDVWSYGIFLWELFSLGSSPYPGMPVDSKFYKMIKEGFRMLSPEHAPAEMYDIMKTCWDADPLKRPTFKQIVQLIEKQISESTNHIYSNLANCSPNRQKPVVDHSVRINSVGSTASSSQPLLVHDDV
Chain of Vascular endothelial growth factor receptor 2 (P35968 whole entry, the tested form may be a part): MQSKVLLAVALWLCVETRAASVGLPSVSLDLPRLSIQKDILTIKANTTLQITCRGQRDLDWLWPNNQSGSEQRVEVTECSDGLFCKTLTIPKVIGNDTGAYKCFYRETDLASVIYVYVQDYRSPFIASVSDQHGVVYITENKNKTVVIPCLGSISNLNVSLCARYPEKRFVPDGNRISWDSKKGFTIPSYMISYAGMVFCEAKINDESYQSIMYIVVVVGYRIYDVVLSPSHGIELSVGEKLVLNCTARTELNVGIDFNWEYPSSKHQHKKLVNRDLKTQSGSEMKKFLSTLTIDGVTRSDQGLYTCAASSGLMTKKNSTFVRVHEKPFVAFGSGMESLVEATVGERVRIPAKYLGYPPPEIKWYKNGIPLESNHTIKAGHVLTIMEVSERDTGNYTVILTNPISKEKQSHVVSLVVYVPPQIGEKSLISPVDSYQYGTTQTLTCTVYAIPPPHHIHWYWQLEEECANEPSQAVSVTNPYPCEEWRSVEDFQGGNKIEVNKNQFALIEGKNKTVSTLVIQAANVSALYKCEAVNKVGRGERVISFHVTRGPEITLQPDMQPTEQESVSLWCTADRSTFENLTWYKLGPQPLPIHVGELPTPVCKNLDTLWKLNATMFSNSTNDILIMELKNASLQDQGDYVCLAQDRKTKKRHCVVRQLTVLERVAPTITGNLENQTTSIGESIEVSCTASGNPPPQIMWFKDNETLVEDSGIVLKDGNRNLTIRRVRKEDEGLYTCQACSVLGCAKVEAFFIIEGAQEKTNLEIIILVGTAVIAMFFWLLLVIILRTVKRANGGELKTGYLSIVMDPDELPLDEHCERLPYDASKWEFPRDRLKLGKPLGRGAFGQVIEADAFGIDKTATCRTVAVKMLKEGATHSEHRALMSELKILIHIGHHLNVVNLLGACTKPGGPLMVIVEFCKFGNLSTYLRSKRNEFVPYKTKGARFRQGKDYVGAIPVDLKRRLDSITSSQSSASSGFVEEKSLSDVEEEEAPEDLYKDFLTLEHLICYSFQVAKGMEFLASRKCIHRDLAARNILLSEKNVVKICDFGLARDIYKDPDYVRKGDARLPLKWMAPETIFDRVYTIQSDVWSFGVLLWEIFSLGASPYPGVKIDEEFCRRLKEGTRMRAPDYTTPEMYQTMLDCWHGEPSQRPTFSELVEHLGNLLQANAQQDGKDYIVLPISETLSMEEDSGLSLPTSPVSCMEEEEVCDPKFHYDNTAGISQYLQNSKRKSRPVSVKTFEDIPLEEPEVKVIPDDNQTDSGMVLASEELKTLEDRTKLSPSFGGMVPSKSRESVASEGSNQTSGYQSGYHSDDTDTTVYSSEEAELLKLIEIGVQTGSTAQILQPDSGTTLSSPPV
Chain of Aurora kinase B (Homo sapiens) (Q96GD4 whole entry): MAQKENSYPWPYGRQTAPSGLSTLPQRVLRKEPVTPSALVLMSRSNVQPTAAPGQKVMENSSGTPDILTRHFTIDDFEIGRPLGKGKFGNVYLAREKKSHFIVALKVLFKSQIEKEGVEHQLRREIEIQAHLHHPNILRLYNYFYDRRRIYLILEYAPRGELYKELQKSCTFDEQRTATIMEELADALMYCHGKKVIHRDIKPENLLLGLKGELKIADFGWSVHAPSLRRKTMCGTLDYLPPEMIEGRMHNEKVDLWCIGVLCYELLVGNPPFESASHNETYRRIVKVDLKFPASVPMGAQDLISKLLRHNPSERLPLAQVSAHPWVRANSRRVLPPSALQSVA

As usually defined, the IC50 is the concentration at which inhibition is half-maximal. A word on the inhibition: it is the share of the control response that was lost under treatment. Regarding `COc1cc2c(Oc3ccc(NC(=O)C4(c5nnc(-c6ccc(F)cc6)o5)CC4)cc3F)ccnc2cc1OCCCN1CCCCC1`, the IC50 with H1975/Gefitinib is 107 nM; in test [1], 63 nM; in [2], more than 200 nM; in test [3], 81 nM; with NCI-H1975, 99 nM; in test [5], more than 200 nM. In addition, the IC50 in [7] was 103 nM. Moreover, the “Ratio IC50” value in the test with HT-29 was found to be 1.57; in the test on MCF7, 2; in the test on PC-3, 1.54. The inhibition in test [4] and in [6] was more than 80% each time.

The record behind these values is ChEMBL document CHEMBL4680122, “Design, synthesis and biological evaluation of new Axl kinase inhibitors containing 1,3,4-oxadiazole acetamide moiety as novel linker” (Eur J Med Chem, 2020).
